# According to US9797015B2, “Genetic variants associated with lithium response in bipolar disorder” (Academia Sinica, priority 2013, dated 2017):
# Several values for one entry are separate records, joined by “and”; a condition that tells them apart may be missing. Equal values may be shown once.
# Columns and labels:
# Type in all cases: in vivo, human
# [1] = tested on: bipolar I (BPI) disorder patients; test: Response to long-term lithium prophylaxis treatment, Alda Scale (retrospective, life chart; GWAS and replication groups)
# Excerpt: We carried out a “discovery” GWAS, and two tests of replication. […] We genotyped each of the 1647 patients by array (see below).
# To assess response to long-term lithium prophylaxis treatment in BPI disorder, we prepared a life chart with graphic depiction of lifetime clinical course for each of the BPI patients recruited before June 2012 (N=1761). […] We depicted this information graphically, based on integrated information gathered from direct interview with patients and their family members, interviews with in-charge psychiatrists, and a thorough medical chart review.
# The phenotype of lithium response was assessed based on the life chart, using the Retrospective Criteria of Long-Term Treatment Response in Research Subjects with Bipolar Disorder developed by Martin Alda and Colleagues (Alda Scale). The Alda scale has two criteria. […] Criterion B (B1-B5, each rated as 0, 1 or 2 points) is used to establish whether there is a causal relationship between clinical improvement and the treatment. B1 and B2 indicate the recurrence risk off the lithium treatment [number (B1) and frequency (B2) of episodes]. B3 is a measure of the length of lithium treatment. B4 indicates compliance with lithium. B5 is a measure of concomitant psychotropic medication during periods of stability. The total score is obtained by subtracting the sum of the B scores from the A score.
# In investigating a causal relationship between lithium treatment and clinical improvement of individual patients, it is important to ensure (i) comparability in clinical course between on-lithium and off-lithium periods (number, frequency and severity of episodes); (ii) satisfactory drug compliance, and (iii) the minimization of influence from additional medications (hypnotics, antidepressants, antipsychotics, and other mood stabilizers). We determined inclusion criteria accordingly, to minimize the misclassification of responders and non-responders.
# See, e.g., Grof et al., J Clin Psychiatry 2002; 63:942-7; and Squassina et al, Pharmacogenomics 2011; 12:1559-69.
# [2] = tested on: bipolar I (BPI) disorder patients; test: Follow-up study (second test of replication) of 24 patients on lithium monotherapy, Alda Scale; parameters: key to A − B (total score of Alda Scale): Alda total = A score minus sum of B1-B5 scores (each 0-2); conditions: for A − B (total score of Alda Scale): individual patients, follow-up 2-5 yrs
# Excerpt: In a second test of replication, we genotyped an independent series of 24 patients who had received lithium monotherapy for at least 2 years, through May 2012. We based their inclusion on a life chart (see Phenotype Definition and Assessment below) constructed for all patients in the 1647-patient sample. Each of these 24 patients had good drug adherence to mood stabilizer(s) other than lithium prior to their commencement of lithium monotherapy but with unsatisfactory response.
# The phenotype of lithium response was assessed based on the life chart, using the Retrospective Criteria of Long-Term Treatment Response in Research Subjects with Bipolar Disorder developed by Martin Alda and Colleagues (Alda Scale). The Alda scale has two criteria. Criterion A measures the extent of clinical improvement in illness activity and takes into account the frequency, duration, and severity of episodes during periods of lithium treatment considered adequate in duration and dosage, compared with the frequency, duration, and severity of episodes during periods off the lithium treatment, on a scale from 0 (no change, or exacerbation of disease severity) to 10 (complete remission). Criterion B (B1-B5, each rated as 0, 1 or 2 points) is used to establish whether there is a causal relationship between clinical improvement and the treatment. B1 and B2 indicate the recurrence risk off the lithium treatment [number (B1) and frequency (B2) of episodes]. B3 is a measure of the length of lithium treatment. B4 indicates compliance with lithium. B5 is a measure of concomitant psychotropic medication during periods of stability. The total score is obtained by subtracting the sum of the B scores from the A score.
# (§1) For patients in the second test of replication, we carried out regular follow-up evaluations (usually monthly and at least once every 3 months), including assay of lithium to assess drug adherence, and a SCAN interview to assess clinical condition, at outpatient clinics for at least 2 years.
# [3] = Reported lithium blood levels during prophylaxis therapy; conditions: study patients with good adherence to lithium prophylaxis therapy
# Excerpt: To assess response to long-term lithium prophylaxis treatment in BPI disorder, we prepared a life chart with graphic depiction of lifetime clinical course for each of the BPI patients recruited before June 2012 (N=1761). This life chart included all manic, hypomanic, and depressive episodes with date of onset (year and month), duration, and severity (including the extent of functional disability, hospitalization, and the presence of psychotic features), all doses of and duration of treatment with psychotropics and mood stabilizers known have been prescribed, drug adherence recorded in medical chart for all visits at outpatient clinics, all recorded blood levels of mood stabilizers, and any adverse drug reactions. We depicted this information graphically, based on integrated information gathered from direct interview with patients and their family members, interviews with in-charge psychiatrists, and a thorough medical chart review. Based on this life chart, we determined whether individual patients had good drug adherence.
# as §1
# [4] = 394 bipolar I patients under lithium prophylaxis, B5 = 2 (prolonged antidepressant and/or antipsychotic and/or mood stabilizer)
structure (smiles),measurement,setting,value
[Li] [lithium],Good response to treatment (A − B ≧ 6),"[1]; 394 bipolar I patients under lithium prophylaxis, B5 = 1 (low dose antidepressants and/or antipsychotics and/or prolonged sleep medication)",124 (50.4) N(%)
same,Good response to treatment (A − B ≧ 6),[1]; [4],5 (5.0) N(%)
same,Poor response to treatment (A − B < 6),[1]; [4],96 (95.0) N(%)
same,Good response to treatment (A − B ≧ 6),"[1]; 394 bipolar I patients under lithium prophylaxis, additional medication B5 = 0 (none except infrequent sleep medication)",30 (63.8) N(%)
same,Poor responders to treatment at cutoff 5/6,[1]; study subjects with a B5 score of 2,95.0%
same,"total Alda score, range","[2]; carriers of the response alleles (N=16), good response",8-10
same,A − B (total score of Alda Scale),[2]; rs17026688 genotype CC,3 (3×) and 2 (2×) and 0 (3×)
same,A − B (total score of Alda Scale),[2]; rs17026688 genotype CT,10 (5×) and 9 (6×) and 8
same,A − B (total score of Alda Scale),[2]; rs17026688 genotype TT,9
same,"total Alda score, range","[2]; non-carriers (N=8), poor response",0-3
same,lithium blood levels,[3],≥ 0.5 mM
